Counter-ions that a name gives are not always drawn.

This test relates to mice. Briefly: modified phenyl-p-quinone writhing assay in mice (analgesia). The test is classed as in vivo. Conditions: Mus musculus, sc; read-out: Analgesic Activity (Inhibition of Writhing ED₅₀mg/kg,s.c.). Here is the method:
The 2,6-methano-1,3-benzodiazocines of this invention are useful as analgetics due to their ability to alleviate pain in mammals. The procedure employed to determine analgetic activity is a modification of the phenyl-p-quinone writhing assay in mice, a standard assay for analgesia [Proc. Soc. Exptl. Bio. Med., 95 729(1957)]. Pursuant to the modified procedure, phenyl-p-benzoquinone (Eastman, 12.5 mg) is dissolved in 5 ml of 95% ethanol and the solution is diluted to a total volume of 100 ml with distilled water. The solution is administered to the subject mice intraperitoneally at a dose of 10 ml per kg of body weight. A characteristic "writhe", an inward rotation of one or more feet with twisting and turning of the trunk, drawing in of the abdominal wall, lordosis and arching of the back, is produced.
A total of 28 male mice (Charles River, CD-1), weighing 18 to 30 grams, are employed for a time response. The subject animals receive food and water ad libitum. Test compounds are dissolved in distilled water, or suspended in distilled water containing one drop of a suitable surfactant, such as Tween-80.
Four groups of five animals (20 animals) are given the test compound subcutaneously or orally (p.o.) at 15, 30, 45, and 60 minutes prior to administration of the phenyl-p-quinone. A control group (2 animals per group) receive an equal volume of the vehicle. After the administration of the phenyl-p-quinone, the mice are placed separately in one liter beakers, and after five minutes, are observed for ten minutes. The number of writhes for each animal is recorded. The following formula is used to compute the percent inhibition: […]
The time period with the greatest percent of inhibition is considered the peak time. A dose range determination is generally reserved for those compounds which inhibit [formula] writhing by greater than 65-70% at the screening dose. A dose range determination is run in the same manner as the time response except 10 animals per group are tested at the peak time of test drug activity. Fifty animals, four test drug groups, and a vehicle control are employed. Animals are dosed and tested in a randomized manner.
Take `CC(=O)Oc1ccc2c(c1)C1CCN(C)C(C1)N2C` (centres unmarked) [1,2,3,4,5,6-Hexahydro-1,3-dimethyl-2,6-methano-1,3-benzodiazocin-8-ol acetate, fumarate]: the ED50 stood at 0.74 mg/kg.

`CN1CCC2CC1N(C)c1ccc(O)cc12.O=C(O)/C=C/C(=O)O` (centres unmarked) [1,2,3,4,5,6-Hexahydro-1,3-dimethyl-2,6-methano-1,3-benzodiazocin-8-ol fumarate]: the ED50 stood at 0.7 mg/kg.

As for `COc1ccc2c(c1)C1CCN(C)C(C1)N2C` (centres unmarked) [1,2,3,4,5,6-Hexahydro-8-methoxy-1,3-dimethyl-2,6-methano 1,3-benzodiazocine], the ED50 was found to be 10.2 mg/kg.

As for `CN1CCC2CC1N(C)c1c(Br)cc(O)cc12` (centres unmarked) [10-Bromo-1,2,3,4,5,6-hexahydro-1,3-dimethyl-2,6-methano-1,3-benzodiazocin-8-ol, hemi-fumarate], the ED50 was determined as 1.9 mg/kg.

On to `CC(C)=CCN1CCC2(C)c3cc(O)ccc3CC1C2C` (centres unmarked) [pentazocine, reference compound], for which the ED50 is 1.3 mg/kg.

Source of the values: patent publication EP0335292A2, “2,6-Methano-1,3-benzodiazocines, a process for their preparation and their use as medicaments” (HOECHST-ROUSSEL PHARMACEUTICALS INCORPORATED, priority 1988, dated 1989).
